Laboratory results: the supplement of paper PMC7021759
± gives the standard deviation of the averaged measurements.

System: SK-N-MM (SKNMM-MYCN, doxycycline-inducible MYCN)
Experiment: area under dose-response curve (CellTiter-Glo viability normalised to plate controls) (AUC (arbitrary units)); higher = more loss of viability; extreme values may be limits of the assay
How it was run: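 For each compound, area under the dose-response curve was calculated from log2 CellTiter-Glo luminescence normalised to the positive and negative controls on each plate. The cells were SK-N-MM with doxycycline-inducible MYCN, plated at 1250 cells/100 μL in 96-well plates and moved to medium with or without doxycycline about 24 h later. Two days after that, 10-point 1:3 dilution series were pin-transferred (890-fold stock dilution), with re-dosing on day 4 and readout 3 or 8 days after drugging.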

[1] = MYCN induction (doxycycline): +doxycycline (MYCN induced), time after drugging: 3 days
[2] = MYCN induction (doxycycline): +doxycycline (MYCN induced), time after drugging: 8 days
[3] = MYCN induction (doxycycline): no doxycycline (MYCN not induced), time after drugging: 3 days
[4] = MYCN induction (doxycycline): no doxycycline (MYCN not induced), time after drugging: 8 days

SMILES | area under dose-response curve [1] | area under dose-response curve [2] | area under dose-response curve [3] | area under dose-response curve [4]
CCN(CC)CCNC(=O)c1c(C)[nH]c(/C=C2\C(=O)Nc3ccc(F)cc32)c1C [SUNITINIB] | 3.49 | 132 | 3.64 | 140
Cc1c(N)nc([C@H](CC(N)=O)NC[C@H](N)C(N)=O)nc1C(=O)N[C@H](C(=O)N[C@H](C)[C@@H](O)[C@H](C)C(=O)N[C@H](C(=O)NCCc1nc(-c2nc(C(=O)NCCC[S+](C)C)cs2)cs1)[C@@H](C)O)[C@@H](OC1OC(CO)C(O)C(O)C1OC1OC(CO)C(O)C(OC(N)=O)C1O)c1cnc[nH]1 (some centres not stated) [BLEOMYCIN] | 0 | 0 | 0 | 0
CN(C)CCCNC(=O)c1ccc(-c2cc(O)c3ncccc3c2)cc1 [ML324] | 16.5 | 109 | 4.85 | 68.6
Nc1nc2[nH]cnc2c(=S)[nH]1 [THIOGUANINE] | 26.6 | 54.3 | 10.2 | 21.2
Cc1cnc(CNC(=O)c2c(=O)c3ccc(N4CCCN(C)CC4)nc3n3c2sc2ccccc23)cn1 [CX-5461] | – | 11.3 | 11.7 | –
O=C(CCCCCCNC(=O)c1cnc(N(c2ccccc2)c2ccccc2)nc1)NO [ROCILINOSTAT] | 43.9 | 94.7 | 20.4 | 76.4
CC(C)n1nc(-c2ccc3oc(N)nc3c2)c2c(N)ncnc21 [INK-128] | 36.2 | 38.7 | 29.5 | 59.3
O=c1[nH]c(=O)n([C@H]2C[C@H](O)[C@@H](CO)O2)cc1/C=C/Br [BRIVUDINE] | 0.716 | 11.1 | 0 | 0.883
CC(=O)Nc1cccc(-n2c(=O)n(C3CC3)c(=O)c3c(Nc4ccc(I)cc4F)n(C)c(=O)c(C)c32)c1 [TRAMETINIB] | 54.2 | 206 | 42.4 | 152
Cc1sc2c(c1C)C(c1ccc(Cl)cc1)=N[C@@H](CC(N)=O)c1nnc(C)n1-2 [CPI-203] | 2.86 | 38.6 | 8.36 | 30.9
COc1cc2nccc(Oc3ccc(NC(=O)Nc4cc(C)on4)c(Cl)c3)c2cc1OC [TIVOZANIB] | 0 | 0 | 0 | 0
Nc1ccn([C@@H]2O[C@H](CO)[C@@H](O)C2(F)F)c(=O)n1 [GEMCITABINE] | 72.2 | 299 | 43.4 | 139
O=c1[nH]c(=O)n([C@H]2C[C@H](O)[C@@H](CO)O2)cc1F [FLOXURIDINE] | 23.4 | 165 | 11.8 | 66.3
O=C(Nc1c[nH]nc1-c1nc2ccc(CN3CCOCC3)cc2[nH]1)NC1CC1 [AT9283] | 91 | 206 | 42.9 | 145
COc1cc2ncnc(Nc3ccc(F)c(Cl)c3)c2cc1OCCCN1CCOCC1 [GEFITINIB] | 80.1 | 0 | 93.7 | 93.8
Cn1cnc2c(F)c(Nc3ccc(Br)cc3F)c(C(=O)NOCCO)cc21 [BINIMETINIB] | 0 | 0 | 17.9 | 56.9
Cc1oncc1C(=O)Nc1ccc(C(F)(F)F)cc1 [LEFLUNOMIDE] | 0 | 5.53 | 0 | 16.7
COc1cc2c(NC3CCN(C(C)C)CC3)nc(N3CCC(F)(F)CC3)nc2cc1OCCCN1CCCC1 [UNC0642] | 0 | 203 | 1.33 | 145
CCc1c2c(nc3ccc(O)cc13)-c1cc3c(c(=O)n1C2)COC(=O)[C@]3(O)CC [SN-38] | 152 ± 8.4 | 295 ± 33 | 67.4 ± 16 | 181 ± 37
N[C@H](CCC(=O)N[C@@H](Cc1c[nH]c2ccccc12)C(=O)O)C(=O)O [GOLOTIMOD] | – | 0 | 0 | 12.7
CC(C)(C#N)c1cc(Cn2cncn2)cc(C(C)(C)C#N)c1 [ANASTROZOLE] | 4.86 | 89.8 | 0 | 77.4

SMILES | area under dose-response curve [1] | area under dose-response curve [2] | area under dose-response curve [3] | area under dose-response curve [4]
O=C(/C=C\n1cnc(-c2cc(C(F)(F)F)cc(C(F)(F)F)c2)n1)NNc1cnccn1 [SELINEXOR] | 98.9 | 189 | 43.6 | 128
O=C(NC1CCNCC1)c1n[nH]cc1NC(=O)c1c(Cl)cccc1Cl [AT-7519] | 48.9 | 113 | – | 65.7
Cc1cn(-c2cc(NC(=O)c3ccc(C)c(Nc4nccc(-c5cccnc5)n4)c3)cc(C(F)(F)F)c2)cn1 [NILOTINIB] | 2.25 | 2.7 | 2.22 | 3.03
Cc1cnc(Nc2ccc(OCCN3CCCC3)cc2)nc1Nc1cccc(S(=O)(=O)NC(C)(C)C)c1 [FEDRATINIB] | 109 | 176 | 102 | 151
CC(C)n1c(/C=C/C(O)CC(O)CC(=O)O)c(-c2ccc(F)cc2)c2ccccc21 (configuration not stated) [FLUVASTATIN] | 2.15 | 11 | 0 | 4.98
COc1cc(Nc2c(C#N)cnc3cc(OCCCN4CCN(C)CC4)c(OC)cc23)c(Cl)cc1Cl [BOSUTINIB] | 0.583 | 0.0371 | 0.885 | 0.202
CCN(CC)Cc1ccc2cc(COC(=O)Nc3ccc(C(=O)NO)cc3)ccc2c1 [GIVINOSTAT] | 132 | 283 | 96.7 | 226
CC1(C)CCC(c2ccc(Cl)cc2)=C(CN2CCN(c3ccc(C(=O)NS(=O)(=O)c4ccc(N[C@H](CCN5CCOCC5)CSc5ccccc5)c(S(=O)(=O)C(F)(F)F)c4)cc3)CC2)C1 [NAVITOCLAX] | 8.7 | 3.92 | 0 | 0.362
O=C(NC[C@H](O)CN1CCc2ccccc2C1)c1ccnc(NC2CCC2)c1 | – | 23.4 | – | –
Cc1c(CN2CCC(Nc3ncnc4sc(CC(F)(F)F)cc34)CC2)ccc2c1cc(C#N)n2Cc1cn[nH]c1 [MI-503] | 131 | 177 | – | 169
O=c1[nH]cc(F)c(=O)[nH]1 [5-FLUOROURACIL] | 12.1 | 24.8 | 6.6 | 25
Cc1c(-c2c(-c3ccc(F)o3)sc3ncnc(O[C@H](Cc4ccccc4OCc4ccnn4CC(F)(F)F)C(=O)O)c23)ccc(OCCN2CCN(C)CC2)c1Cl | – | 7.67 | – | –
CC(C)C[C@H](NC(=O)[C@H](Cc1ccccc1)NC(=O)c1cnccn1)B(O)O [BORTEZOMIB] | 264 | 382 | 245 | 374
CC1=C(/C=C/C(C)=C/C=C/C(C)=C/C(=O)O)C(C)(C)CCC1 [TRETINON] | – | 0.434 | 1.4 | 0
CC1(COc2ccc3c(c2)ncn3-c2ccc3cccc(N4CCC(N)CC4)c3n2)COC1 [CRENOLANIB] | 0 | 136 | 0 | 146
Nc1nc(Cl)nc2c1ncn2[C@H]1C[C@H](O)[C@@H](CO)O1 [CLADRIBINE] | 51.7 | 225 | 35.7 | 110
O=C(Nc1ccc(Nc2nccc(Nc3cc(C4CCCC4)[nH]n3)n2)cc1)Nc1cccc(C(F)(F)F)c1 [CD532] | 175 | 211 | 156 | 191
O=C1c2c(O)ccc(O)c2C(=O)c2c(NCCNCCO)ccc(NCCNCCO)c21 [MITOXANTHRONE] | 166 | 325 | 119 | 258
NC(=O)Nc1cc(-c2cccc(F)c2)sc1C(=O)N[C@H]1CCCNC1 [AZD-7762] | 139 | 244 | 75.8 | 141
O=C(NC[C@H](O)CO)c1ccncc1Nc1ccc(I)cc1F [PIMASERTIB] | 42.1 | 125 | 0 | 105
